Data on 6 compounds can be found in patent US11655268B2, “Nucleoside or nucleotide derivatives, and uses thereof” (ST Pharm Co., Ltd., priority 2018, dated 2023).

In one data set the test system is CHIKV. As to the kind of experiment: Cytopathic effect reduction, Chikungunya virus in Vero cells, MTT. The following applies: 72 h, read-out: EC50 CHIKV. It counts as cell-based. For orientation: Damage to the host cells serves as the signal in cytopathic effect assays.
A further data set concerns MERS-CoV. The data set can be described thus: microbe, parasite or virus in culture. The class given is cell-based, MERS virus (MERS-CoV/KOR/KNIH/002_05_2015). Conditions: Middle East respiratory syndrome-related coronavirus, Huh-7, 72 h, read-out: EC50 MERS-CoV.
The next data set relates to Influenza virus B/Lee/40. The data set can be described thus: Cytopathic effect reduction, influenza B Lee in MDCK cells, MTT. The class given is cell-based. The following applies: for Selectivity index FluB Lee: CC50/EC50; for pEC50: read-out: Anti-Flu activity EC50 FluB Lee.
Data set [1] in a line: Cytotoxicity (CC50) in Vero cells. Conditions: African green monkey.
The test system of another data set is ZIKV. The data set can be described thus: Reduction in viral infection, zika virus in Vero cells, immunofluorescence (4G2 antibody). The class given is cell-based, Zikavirus (MR766). The following applies: 72 h, day 3 after infection.
A short description of data set [2]: in vitro. Conditions: human.
A short description of data set [3]: in vitro. Conditions: dog.
In the next data set the test system is DENV. As to the kind of experiment: Reduction in viral infection, dengue virus in Vero cells, immunofluorescence (4G2 antibody). The class given is cell-based, Dengue virus New Guinea C (NGC). The following applies: 72 h, read-out: EC50 DENV.
The next data set concerns MDCK cells. Conditions: read-out: Toxicity CC50, day 3, MTT.
The subject of the next data set is hCoV (229E). As to the kind of experiment: microbe, parasite or virus in culture. It counts as cell-based, Human coronavirus hCoV 229E. The following applies: MRC5, 72 h; MRC-5 cells, day 3 after infection; read-out: EC50 hCoV (229E).
Data set [4] can be described thus: in vitro. Conditions: cat.
The next data set deals with FIPV. As to the kind of experiment: Cytopathic effect reduction, FIPV in CRFK cells, MTT. Conditions: Alphacoronavirus 1, 72 h; CRFK cells, day 3 after infection; read-out: EC50 FIPV. It counts as cell-based, feline infectious peritonitis virus (FIPV).
Data set [5] relates to Madin-Darby Canine Kidney (MDCK) cells. The following applies: 100 μM for 3 days; cited from earlier work.
Data set [6] can be described thus: in vitro. The following applies: human. This is another data set of the same source.
[7] abbreviates: CC50 (CHIKV), Vero cells, CHIKV test, MTT.
The mark [8] stands for this setting: CC50 (DENV), Vero cells, DENV test.

Molecules are shown by their SMILES. pEC50: −log10 of the molar value. Where two headings read alike, the source gives them in different places.

In general, pEC50 refers to −log10 of the EC50, conventionally taken in molar units. Turning to `O=C(Nc1ccn(C2O[C@H](CO)[C@@H](O)[C@H]2F)c(=O)n1)c1ccc([N+](=O)[O-])cn1` (stereo in doubt) [Example 30, N-(1-((2S,3R,4R,5R)-3-fluoro-4-hydroxy-5-(hydroxymethyl)tetrahydrofuran-2-yl)-2-oxo-1,2-dihydropyrimidin-4-yl)-5-nitropicolinamide], the negative-log EC50 (pEC50) in the data set on CHIKV is 4.20; in the data set with MERS-CoV, < 4.00; in the data set on Influenza virus B/Lee/40 (MDCK, 72 h), 5.19; with ZIKV it was < 4.00; in the data set with DENV, 4.11. Further, the “Selectivity index FluB Lee” value in the data set with Influenza virus B/Lee/40 is reported as >15.4. The CC50 at 3 days in data set [1] (setting [7]) was > 100 µM; in data set [1] (setting [8]), > 100 µM; in data set [1] (CC50, Vero cells, ZIKV test) it was > 100 µM; in the data set “in vitro [2]” it was > 100 µM; in the data set “in vitro [3]”, > 100 µM.
For `O=C(Nc1ccn(C2O[C@H](CO)[C@@H](O)[C@H]2F)c(=O)n1)c1cccnn1` (stereo in doubt) [Example 33, N-(1-((2S,3R,4R,5R)-3-fluoro-4-hydroxy-5-(hydroxymethyl)tetrahydrofuran-2-yl)-2-oxo-1,2-dihydropyrimidin-4-yl)pyridazine-3-carboxamide], the negative-log EC50 (pEC50) in the data set on CHIKV was 4.06; with MERS-CoV, < 4.00; with Influenza virus B/Lee/40 (MDCK, 72 h) it was 5.11; in the data set with ZIKV, < 4.00; with DENV, < 4.00. In addition, the “Selectivity index FluB Lee” value in the data set with Influenza virus B/Lee/40 is on record as >12.8. In addition, the CC50 at 3 days was > 100 µM in data set [1] (setting [7]); > 100 µM in data set [1] (setting [8]); > 100 µM in data set [1] (CC50, Vero cells, ZIKV test); > 100 µM in “in vitro [2]”; > 100 µM in “in vitro [3]”.
As to `O=C(Nc1ccn(C2O[C@H](CO)[C@@H](O)[C@H]2F)c(=O)n1)c1ccncn1` (stereo in doubt) [Example 36, N-(1-((2S,3R,4R,5R)-3-fluoro-4-hydroxy-5-(hydroxymethyl)tetrahydrofuran-2-yl)-2-oxo-1,2-dihydropyrimidin-4-yl)pyrimidine-4-carboxamide], the negative logarithm of the EC50 (pEC50) with CHIKV is 4.24; with MERS-CoV it was < 4.00; in the data set on Influenza virus B/Lee/40 (MDCK, 72 h) it was 4.94; in the data set with ZIKV, < 4.00; with DENV, < 4.00. Further, the “Selectivity index FluB Lee” value in the data set on Influenza virus B/Lee/40 is recorded as >8.8. For the same compound, the CC50 at 3 days in data set [1] (setting [7]) was > 100 µM; in data set [1] (setting [8]), > 100 µM; in [1] (CC50, Vero cells, ZIKV test), > 100 µM; in “in vitro [2]”, > 100 µM; in the data set “in vitro [3]”, > 100 µM.
Consider `N#Cc1ccc(C(=O)Nc2ccn(C3O[C@H](CO)[C@@H](O)[C@H]3F)c(=O)n2)nc1` (stereo in doubt) [Example 37, 5-cyano-N-(1-((2S,3R,4R,5R)-3-fluoro-4-hydroxy-5-(hydroxymethyl)tetrahydrofuran-2-yl)-2-oxo-1,2-dihydropyrimidin-4-yl)picolinamide], for which the pEC50 was 4.29 in the data set on CHIKV; < 4.00 with MERS-CoV; 4.82 in the data set on Influenza virus B/Lee/40 (MDCK, 72 h); < 4.00 in the data set with ZIKV; < 4.00 in the data set with DENV. Besides, the “Selectivity index FluB Lee” value in the data set with Influenza virus B/Lee/40 is given as >6.6. Moreover, the CC50 at 3 days in [1] (setting [7]) is > 100 µM; in data set [1] (setting [8]) it was > 100 µM; in data set [1] (CC50, Vero cells, ZIKV test), > 100 µM; in the data set “in vitro [2]”, > 100 µM; in the data set “in vitro [3]” it was > 100 µM.
For `Nc1ccn([C@@H]2O[C@H](CO)[C@@H](O)[C@H]2F)c(=O)n1` [2′-FdC, reference compound], in the data set on Influenza virus B/Lee/40, the pEC50 is 5.28. In addition, the CC50 with MDCK cells was > 100 µM.
Consider `Nc1ccn([C@@H]2O[C@H](CO)[C@@H](O)C2(F)F)c(=O)n1` [Gemcitabine, reference compound], for which the negative-log EC50 (pEC50) in the data set with MERS-CoV is 5.96; with hCoV (229E), 6.36; with Influenza virus B/Lee/40 (MDCK, 72 h) it was 5.89; in the data set with FIPV, 4.68. Also, the “Selectivity index FluB Lee” value in the data set with Influenza virus B/Lee/40 is recorded as 185.2. Moreover, the CC50 was 92 µM in the data set “in vitro [4]”, 241 µM in the data set “in vitro [3]” and > 100 µM in the data set “in vitro [6]”. In “in vitro [2]”, the CC50 at 3 days was > 100 µM. In data set [5], the cell death result is reported as “about 50%”.
